# From BindingDB's records for patent US20250059218 (The Leland Stanford Junior University, 2025)
# Target: T1, Ectonucleotide pyrophosphatase/phosphodiesterase family member 1 (Mus musculus, UniProt P06802)
# T1 sequence (P06802 whole entry): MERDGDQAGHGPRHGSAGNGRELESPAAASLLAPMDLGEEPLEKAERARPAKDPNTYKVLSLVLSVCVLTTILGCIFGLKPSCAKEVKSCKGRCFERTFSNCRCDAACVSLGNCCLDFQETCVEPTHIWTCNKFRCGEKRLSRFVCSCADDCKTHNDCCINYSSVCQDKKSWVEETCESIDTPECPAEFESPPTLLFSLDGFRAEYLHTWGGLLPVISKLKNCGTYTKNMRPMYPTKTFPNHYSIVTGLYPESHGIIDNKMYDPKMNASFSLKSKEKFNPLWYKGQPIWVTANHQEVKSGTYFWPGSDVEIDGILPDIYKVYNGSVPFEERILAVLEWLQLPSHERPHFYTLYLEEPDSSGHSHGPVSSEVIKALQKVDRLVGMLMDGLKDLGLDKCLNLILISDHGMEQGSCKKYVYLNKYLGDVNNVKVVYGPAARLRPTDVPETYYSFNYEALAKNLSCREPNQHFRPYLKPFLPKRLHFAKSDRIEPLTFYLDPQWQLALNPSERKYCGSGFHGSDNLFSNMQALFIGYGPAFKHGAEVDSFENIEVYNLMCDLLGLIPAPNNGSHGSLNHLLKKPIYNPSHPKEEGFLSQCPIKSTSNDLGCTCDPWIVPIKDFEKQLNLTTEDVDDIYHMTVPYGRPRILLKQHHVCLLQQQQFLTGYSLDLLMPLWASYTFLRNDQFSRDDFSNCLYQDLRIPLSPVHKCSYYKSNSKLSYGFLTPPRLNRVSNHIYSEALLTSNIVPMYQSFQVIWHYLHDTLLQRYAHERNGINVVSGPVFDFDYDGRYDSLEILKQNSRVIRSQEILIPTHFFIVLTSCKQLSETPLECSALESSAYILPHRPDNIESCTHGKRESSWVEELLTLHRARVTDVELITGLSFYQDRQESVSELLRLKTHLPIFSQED
# Assay: ENPP1 Enzyme Activity Assay
# Experimental: The AMP degradation product was converted to ATP, which was detected using luciferase. To achieve this, an enzyme mixture of polyphosphate:AMP phosphotransferase (PAP) and myokinase was prepared according to Goueli et al. in EP2771480. Briefly, PAP was diluted to 2 mg/mL in buffer containing 50 mM Tris pH 7.5, 0.1% NP-40. Myokinase was diluted to 2 KU/mL in buffer containing 3.2 mM ammonium sulfate pH 6.0, 1 mM EDTA, and 4 mM polyphosphate. The heat-inactivated ENPP1 reaction was incubated with PAP (0.01 μg/μL) and myokinase (0.0075 U/μL) in buffer containing 40 mM Tris pH 7.5, 0.05 mg/mL Prionex, 5 mM MgCl2, 20 μM polyphosphate, and 0.15 g/L phenol red (for ease of pipetting) for 3 hours (total reaction volume=20 μL). CellTiterGlo (20 uL) was added to the reaction according to manufacturer's protocol and luminescence was measured.
row,Structure (SMILES),IC50 [nM]
1,"COc1cc2ncnc(Nc3ccc(P(=O)(O)O)cc3)c2cc1OC [US20250059218, Compound 2]",> 100
2,"COc1cc2ncnc(NCc3ccc(C(=O)NO)cc3)c2cc1OC [US20250059218, Compound 101]",> 100
3,"COc1cccc2c(NCc3ccc(B(O)O)cc3)ncnc12 [US20250059218, Compound 102]",< 50
4,"COc1cccc2c(N3CCC(COP(O)(O)=S)CC3)c(C#N)cnc12 [US20250059218, Compound 50]",> 100
5,"COc1ccc2c(N3CCC(COP(O)(O)=S)CC3)c(C#N)cnc2c1 [US20250059218, Compound 48]",> 100
6,"COc1cccc2c(NCc3ccc(P(=O)(O)O)cc3)ncnc12 [US20250059218, Compound 36]",< 50
7,"COc1cc(OC)c2ncc(C#N)c(N3CCC(CCP(=O)(O)O)CC3)c2c1 [US20250059218, Compound 46]",> 100
8,"COc1cc2ncnc(NCc3ccc(CP(=O)(O)O)cc3)c2cc1OC [US20250059218, Compound 5]",< 50
9,"COc1cccc2c(NCc3ccc(P(=O)(O)O)cc3)c(C#N)cnc12 [US20250059218, Compound 52]",< 50
10,"COc1cccc2c(N3CCC(CCP(=O)(O)O)CC3)c(C#N)cnc12 [US20250059218, Compound 45]",< 50
11,"COc1cccc2c(NCc3ccc(P(=O)(O)O)cc3)nc(/C=C/c3cccnc3)nc12 [US20250059218, Compound 53]",< 50
12,"COc1ccc2c(N3CCC(CCOP(O)(O)=S)CC3)c(C#N)cnc2c1 [US20250059218, Compound 215]",> 100
13,"COc1cc2ncc(C#N)c(N3CCC(CCP(=O)(O)O)CC3)c2cc1OC [US20250059218, Compound 42]",< 50
14,"COc1ccc2c(N3CCC(CCP(=O)(O)O)CC3)c(C#N)cnc2c1 [US20250059218, Compound 43]",< 50
15,"COc1cc2ncnc(NCc3ccc(P(=O)(O)O)cc3)c2cc1OC [US20250059218, Compound 4]",< 50

# Next, values leading:
row,IC50 [nM],Structure (SMILES)
1,> 100,"COc1cc2ncc(F)c(N3CCC(CCP(=O)(O)O)CC3)c2cc1OC [US20250059218, Compound 208]"
2,> 100,"COc1cc2ncc(Cl)c(N3CCC(CCP(=O)(O)O)CC3)c2cc1OC [US20250059218, Compound 207]"
3,< 50,"COc1ccc2c(N3CCC(CCCP(=O)(O)O)CC3)c(C#N)cnc2c1 [US20250059218, Compound 209]"
4,< 50,"COc1ccc2c(NCc3ccc(P(=O)(O)O)cc3)c(C#N)cnc2c1 [US20250059218, Compound 204]"
5,> 100,"COc1ccc2c(NCc3ccc(C(=O)NO)cc3)c(C#N)cnc2c1 [US20250059218, Compound 219]"
6,< 50,"COc1cc2ncc(N)c(N3CCC(CCP(=O)(O)O)CC3)c2cc1OC [US20250059218, Compound 205]"
7,> 100,"COc1cccc2c(N3CCC(CCB(O)O)CC3)c(C#N)cnc12 [US20250059218, Compound 216]"
8,< 50,"COc1cccc2c(N3CCC(CCCP(=O)(O)O)CC3)c(C#N)cnc12 [US20250059218, Compound 210]"
9,< 50,"COc1cc2ncc(C#N)c(NCc3ccc(P(=O)(O)O)cc3)c2cc1OC [US20250059218, Compound 203]"
10,> 100,"COc1ccc2c(NCc3ccc(B(O)O)cc3)c(C#N)cnc2c1 [US20250059218, Compound 213]"
11,> 100,"COc1ccc2c(NCc3ccc(B(O)O)cc3)ncnc2c1 [US20250059218, Compound 103]"
12,< 50,"COc1cccc2c(NCc3ccc(CP(=O)(O)O)cc3)c(C#N)cnc12 [US20250059218, Compound 211]"
13,> 100,"COc1cccc2c(NCc3ccc(C(=O)NO)cc3)ncnc12 [US20250059218, Compound 104]"
14,> 100,"COc1cc2nccc(N3CCC(CCP(=O)(O)O)CC3)c2cc1OC [US20250059218, Compound 201]"
15,> 100,"COc1cc2ncc3ncn(Cc4ccc(CP(=O)(O)O)cc4)c3c2cc1OC [US20250059218, Compound 218]"
16,> 100,"COc1cccc2c(NCc3ccc(C(=O)NO)cc3)c(C#N)cnc12 [US20250059218, Compound 220]"
17,> 100,"COc1ccc2c(N3CCC(CCB(O)O)CC3)c(C#N)cnc2c1 [US20250059218, Compound 217]"
18,> 100,"COc1cccc2c(NCc3ccc(B(O)O)cc3)c(C#N)cnc12 [US20250059218, Compound 214]"
